This passage reports IC (2-fold clotting time) results from patent publication US4073913A, “N^2 -arylsulfonyl-L-argininamides and the pharmaceutically acceptable salts thereof” (Mitsubishi Chemical Industries Limited, priority 1974, dated 1978).

Non-standard residues stand in square brackets, D forms with d. Residues, ends and D or L forms follow the SMILES beside them. ξ: configuration not given here. *: point of attachment. Dansyl = CN(C)c1cccc2c(S(=O)(=O)*)cccc12; ξPip = O=C(O)C1CCCCN1

The experiment addresses T1, thrombin (Bos taurus, UniProt P00735).
T1 construct: clotting of bovine fibrinogen
In words: fibrinogen coagulation time (concentration required to prolong the coagulation time by a factor of two). Type of experiment: biochemical. The conditions noted are these: bovine fibrinogen, thrombin 5 units/ml, borate saline buffer pH 7.4, 25° C; control 50-55 seconds prolonged to 100-110 seconds. How it is done:
The measurement of the fibrinogen coagulation time was conducted as follows:
Immediately after mixing, the reaction mixture was transferred from the ice bath to a bath maintained at 25° C. Coagulation times were taken as the period between the time of transference to the 25° C bath and the time of the first appearance of fibrin threads. […] The term "concentration required to prolong the coagulation time by a factor of two" is the concentration of an active ingredient required to prolong the normal coagulation time 50-55 seconds to 100-110 seconds.
As to `CCCN(CC(=O)O)C(=O)[C@H](CCCNC(=N)N)NS(=O)(=O)c1ccc2cc(OC)c(OC)cc2c1` [compound 1], the IC (2-fold clotting time) was 8 µM.
The figure for `COc1cc2ccc(S(=O)(=O)N[C@@H](CCCNC(=N)N)C(=O)N(CC(=O)O)CC(C)C)cc2cc1OC` [compound 5] is 2 µM; for `CCCCCN(CC(=O)O)C(=O)[C@H](CCCNC(=N)N)NS(=O)(=O)c1ccc2cc(OC)c(OC)cc2c1` [compound 7] it is 5 µM; for `CCCCCCN(CC(=O)O)C(=O)[C@H](CCCNC(=N)N)NS(=O)(=O)c1ccc2cc(OC)c(OC)cc2c1` [compound 9] it is 1.5 µM.
With `COCCN(CC(=O)O)C(=O)[C@H](CCCNC(=N)N)NS(=O)(=O)c1ccc2cc(OC)c(OC)cc2c1` [compound 13], the IC (2-fold clotting time) is 0.5 µM.
As for `CCOC(=O)CN(CCOC)C(=O)[C@H](CCCNC(=N)N)NS(=O)(=O)c1ccc2cc(OC)c(OC)cc2c1` [compound 14], the IC (2-fold clotting time) was 1.5 µM.
Take `COCCN(CCCC(=O)O)C(=O)[C@H](CCCNC(=N)N)NS(=O)(=O)c1ccc2cc(OC)c(OC)cc2c1` [compound 17]: the IC (2-fold clotting time) stood at 2.5 µM.
Consider `COCCCN(CC(=O)O)C(=O)[C@H](CCCNC(=N)N)NS(=O)(=O)c1ccc2cc(OC)c(OC)cc2c1` [compound 19], for which the IC (2-fold clotting time) came out at 5 µM.
Consider `CCOCCN(CCC(=O)O)C(=O)[C@H](CCCNC(=N)N)NS(=O)(=O)c1ccc2cc(OC)c(OC)cc2c1` [compound 21], for which the IC (2-fold clotting time) stood at 4 µM.
In the case of `COCCN(CC(=O)O)C(=O)[C@H](CCCNC(=N)N)NS(=O)(=O)c1cc(OC)c2cc(OC)ccc2c1` [compound 23] it was 4 µM; in that of `CCCCN(CC(=O)O)C(=O)[C@H](CCCNC(=N)N)NS(=O)(=O)c1cc(OC)c2cc(OC)ccc2c1` [compound 25], 2 µM.
The figure for `CCOc1cc2ccc(S(=O)(=O)N[C@@H](CCCNC(=N)N)C(=O)N(CCOC)CC(=O)O)cc2cc1OCC` [compound 27] is 15 µM.
The figure for `CCCCN(CC(=O)O)C(=O)[C@H](CCCNC(=N)N)NS(=O)(=O)c1ccc2cc(OC)ccc2c1` [compound 31] is 0.5 µM; for `COCCN(CC(=O)O)C(=O)[C@H](CCCNC(=N)N)NS(=O)(=O)c1ccc2ccc(OC)cc2c1` [compound 35] it is 0.5 µM.
For the molecule `CCCCN(CC(=O)O)C(=O)[C@H](CCCNC(=N)N)NS(=O)(=O)c1ccc2ccc(OC)cc2c1` [compound 39], the IC (2-fold clotting time) is 0.5 µM.
In the case of `COCCN(CC(=O)O)C(=O)[C@H](CCCNC(=N)N)NS(=O)(=O)c1cccc2c(OC)cccc12` [compound 43] it was 2.5 µM; in that of `COc1cc2ccc(S(=O)(=O)N[C@@H](CCCNC(=N)N)C(=O)N(CCC(=O)O)Cc3ccccc3)cc2cc1OC` [compound 52], 10 µM; in that of `COc1cc2ccc(S(=O)(=O)N[C@@H](CCCNC(=N)N)C(=O)N(CCc3ccccc3)CC(=O)O)cc2cc1OC` [compound 54], 3 µM.
In the case of `COc1cc2ccc(S(=O)(=O)N[C@@H](CCCNC(=N)N)C(=O)N(CCC(=O)O)CCc3ccccc3)cc2cc1OC` [compound 56] it was 50 µM; in that of `COc1ccc2cc(S(=O)(=O)N[C@@H](CCCNC(=N)N)C(=O)N(CC(=O)O)Cc3ccccc3)cc(OC)c2c1` [compound 58], 6.5 µM; in that of `COc1ccc2cc(S(=O)(=O)N[C@@H](CCCNC(=N)N)C(=O)N(CCCC(=O)O)Cc3ccccc3)ccc2c1` [compound 60], 50 µM.
The figure for `COc1ccc2cc(S(=O)(=O)N[C@@H](CCCNC(=N)N)C(=O)N(CCC(=O)O)Cc3ccccc3)ccc2c1` [compound 62] is 15 µM.
On to `COc1ccc2ccc(S(=O)(=O)N[C@@H](CCCNC(=N)N)C(=O)N(CCc3ccccc3)CC(=O)O)cc2c1` [compound 64], for which the IC (2-fold clotting time) worked out at 20 µM.
The figure for `COc1ccc2ccc(S(=O)(=O)N[C@@H](CCCNC(=N)N)C(=O)N(CCSC)CC(=O)O)cc2c1` [compound 67] is 1 µM; for `CCSCCN(CC(=O)O)C(=O)[C@H](CCCNC(=N)N)NS(=O)(=O)c1ccc2cc(OC)c(OC)cc2c1` [compound 69] it is 5 µM; for `COc1cc2ccc(S(=O)(=O)N[C@@H](CCCNC(=N)N)C(=O)N3CCCCC3C(=O)O)cc2cc1OC` (stereo partly drawn) [compound 71] it is 5 µM.
For `COc1cc2ccc(S(=O)(=O)N[C@@H](CCCNC(=N)N)C(=O)N(CC(=O)O)C3CCCCC3)cc2cc1OC` [compound 111], the IC (2-fold clotting time) stood at 5 µM.
The figure for `CCCCCN(C(=O)[C@H](CCCNC(=N)N)NS(=O)(=O)c1ccc2cc(OC)c(OC)cc2c1)C(C)C(=O)O` (stereo partly drawn) [compound 118] is 2 µM.
With `COc1cc2ccc(S(=O)(=O)N[C@@H](CCCNC(=N)N)C(=O)N(Cc3ccccc3)C(C)C(=O)O)cc2cc1OC` (stereo partly drawn) [compound 120], the IC (2-fold clotting time) came out at 2.5 µM.
Consider `COc1cc2ccc(S(=O)(=O)N[C@@H](CCCNC(=N)N)C(=O)N(CCc3ccccc3)C(C)C(=O)O)cc2cc1OC` (stereo partly drawn) [compound 122], for which the IC (2-fold clotting time) was determined as 1.5 µM.
In the case of `COc1ccc2cc(S(=O)(=O)N[C@@H](CCCNC(=N)N)C(=O)N(CC3CCCCC3)C(C)C(=O)O)cc(OC)c2c1` (stereo partly drawn) [compound 126] it was 4.5 µM; in that of `COCCN(C(=O)[C@H](CCCNC(=N)N)NS(=O)(=O)c1ccc2cc(OC)c(OC)cc2c1)C(C)C(=O)O` (stereo partly drawn) [compound 129], 5 µM.
The figure for `CCCCN(CC(=O)O)C(=O)[C@H](CCCNC(=N)N)NS(=O)(=O)c1cccc2c1CCCC2` [compound 130] is 20 µM.
The figure for `COCCN(CC(=O)O)C(=O)[C@H](CCCNC(=N)N)NS(=O)(=O)c1cccc2c1CCCC2` [compound 132] is 10 µM; for `N=C(N)NCCC[C@H](NS(=O)(=O)c1ccc2c(c1)CCCC2)C(=O)N(CC(=O)O)Cc1ccccc1` [compound 133] it is 30 µM; for `CCCCN(CC(=O)O)C(=O)[C@H](CCCNC(=N)N)NS(=O)(=O)c1ccc2ccc(C)cc2c1` [compound 143] it is 0.3 µM.
With `COCCN(CC(=O)O)C(=O)[C@H](CCCNC(=N)N)NS(=O)(=O)c1ccc2ccc(C)cc2c1` [compound 144], the IC (2-fold clotting time) was 0.2 µM.
Consider `Cc1ccc2ccc(S(=O)(=O)N[C@@H](CCCNC(=N)N)C(=O)N(CC(=O)O)CC3CCCCC3)cc2c1` [compound 146], for which the IC (2-fold clotting time) is 14 µM.
The figure for `COCCN(CC(=O)O)C(=O)[C@H](CCCNC(=N)N)NS(=O)(=O)c1cccc2ccc(C)cc12` [compound 151] is 20 µM; for `COCCN(CC(=O)O)C(=O)[C@H](CCCNC(=N)N)NS(=O)(=O)c1cccc2cc(C)c(C)cc12` [compound 152] it is 10 µM.
In the case of `CCCCN(CC(=O)O)C(=O)[C@H](CCCNC(=N)N)NS(=O)(=O)c1cccc2c(N(C)C)cccc12` [compound 153] it was 4 µM; in that of `Cc1ccc2ccc(S(=O)(=O)N[C@@H](CCCNC(=N)N)C(=O)N(CC(=O)O)CC3CCCO3)cc2c1` (stereo partly drawn) [compound 160], 0.25 µM; in that of `Cc1ccc2ccc(S(=O)(=O)N[C@@H](CCCNC(=N)N)C(=O)N(CC(=O)O)CC3CCCO3)cc2c1` (stereo partly drawn) [compound 161], 0.2 µM.
With `COc1ccc2ccc(S(=O)(=O)N[C@@H](CCCNC(=N)N)C(=O)N(CC(=O)O)Cc3ccco3)cc2c1` [compound 162], the IC (2-fold clotting time) amounted to 0.2 µM.
In the case of `COc1ccc2ccc(S(=O)(=O)N[C@@H](CCCNC(=N)N)C(=O)N(CC(=O)O)CC3CCCO3)cc2c1` (stereo partly drawn) [compound 164] it was 0.15 µM; in that of `Cc1ccc2ccc(S(=O)(=O)N[C@@H](CCCNC(=N)N)C(=O)N3CCC(C)CC3C(=O)O)cc2c1` (stereo partly drawn) [compound 173], 0.2 µM; in that of `Cc1ccc2ccc(S(=O)(=O)N[C@@H](CCCNC(=N)N)C(=O)N3CCC(C(C)C)CC3C(=O)O)cc2c1` (stereo partly drawn) [compound 175], 0.1 µM.
For the molecule `CC1CCN(C(=O)[C@H](CCCNC(=N)N)NS(=O)(=O)c2cccc3ccccc23)C(C(=O)O)C1` (stereo partly drawn) [compound 179], the IC (2-fold clotting time) was determined as 1 µM.
The figure for `CC(C)C1CCN(C(=O)[C@H](CCCNC(=N)N)NS(=O)(=O)c2ccc3ccccc3c2)C(C(=O)O)C1` (stereo partly drawn) [compound 181] is 0.5 µM; for `CN(C)c1cccc2c(S(=O)(=O)N[C@@H](CCCNC(=N)N)C(=O)N3CCCCC3C(=O)O)cccc12` (stereo partly drawn) [compound 183] (Dansyl-Arg-[ξPip]-OH) it is 0.35 µM; for `COc1cc2ccc(S(=O)(=O)N[C@@H](CCCNC(=N)N)C(=O)N3CCOCC3C(=O)O)cc2cc1OC` (stereo partly drawn) [compound 191] it is 5 µM.
In the case of `COc1cc2ccc(S(=O)(=O)N[C@@H](CCCNC(=N)N)C(=O)N3Cc4ccccc4CC3C(=O)O)cc2cc1OC` (stereo partly drawn) [compound 194] it was 2 µM.
For `COc1cc2ccc(S(=O)(=O)N[C@@H](CCCNC(=N)N)C(=O)N3Cc4ccccc4C3C(=O)O)cc2cc1OC` (stereo partly drawn) [compound 195], the IC (2-fold clotting time) was 1.5 µM.
The figure for `CCOC(=O)CCN(CC(=O)O)C(=O)[C@H](CCCNC(=N)N)NS(=O)(=O)c1ccc2cc(OC)c(OC)cc2c1` [compound 196] is 6.5 µM.
The figure for `CCCCCCCCOC(=O)CN(CCOC)C(=O)[C@H](CCCNC(=N)N)NS(=O)(=O)c1ccc2cc(OC)c(OC)cc2c1` [compound 200] is 2 µM; for `COCCN(CC(=O)Oc1cccc(C)c1)C(=O)[C@H](CCCNC(=N)N)NS(=O)(=O)c1ccc2cc(OC)c(OC)cc2c1` [compound 202] it is 20 µM; for `COCCN(CC(=O)Oc1ccc2c(c1)CCC2)C(=O)[C@H](CCCNC(=N)N)NS(=O)(=O)c1ccc2cc(OC)c(OC)cc2c1` [compound 203] it is 30 µM.
